Measurements taken from PubChem BioAssay (NCI).
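In this assay, cells in 96-well plates receive the compound at five concentrations for 48 hours. Endpoints are linearly interpolated between the surrounding concentrations. Here, GI50 denotes the concentration required for 50% inhibition of growth. At the TGI there is no net growth.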

tested on: SK-MEL-28 melanoma; assay: inhibition of tumour cell growth, NCI panel, 48 h

| SMILES | GI50 | TGI |
| --- | --- | --- |
| Cc1ccccc1NC(=O)N/C(N)=N/c1nc(-c2cccc([N+](=O)[O-])c2)cs1 | 2.55 µM | > 100 µM |

tested on: DU-145 prostate; assay: inhibition of tumour cell growth, NCI panel, 48 h

| SMILES | TGI | GI50 |
| --- | --- | --- |
| CC(=O)N1C(=O)CC2(N=C(C)CC2=O)c2ccccc21 (centres undefined) | > 10 µM | – |
| CSc1ccc(C2=NN(C(=O)c3ccc(F)cc3)C(c3ccc(F)cc3)C2)cc1 (centres undefined) | 29.3 µM | 14.6 µM |
| CC[C@H](NC(=O)[C@H](C)NC)C(=O)N1C[C@@H](O)C[C@H]1Cc1c(-c2[nH]c3cc(F)ccc3c2C[C@@H]2C[C@H](O)CN2C(=O)[C@H](CC)NC(=O)[C@H](C)NC)[nH]c2cc(F)ccc12 | > 100 µM | > 100 µM |
| Cc1ccccc1NC(=O)N/C(N)=N/c1nc(-c2cccc([N+](=O)[O-])c2)cs1 | 65.1 µM | 3.35 µM |

tested on: HOP-62 NSCLC; assay: inhibition of tumour cell growth, NCI panel, 48 h

| SMILES | GI50 | TGI |
| --- | --- | --- |
| CSc1ccc(C2=NN(C(=O)c3ccc(F)cc3)C(c3ccc(F)cc3)C2)cc1 (centres undefined) | 18.4 µM | 33.7 µM |
| CC[C@H](NC(=O)[C@H](C)NC)C(=O)N1C[C@@H](O)C[C@H]1Cc1c(-c2[nH]c3cc(F)ccc3c2C[C@@H]2C[C@H](O)CN2C(=O)[C@H](CC)NC(=O)[C@H](C)NC)[nH]c2cc(F)ccc12 | 27.5 µM | > 100 µM |
| Cc1ccccc1NC(=O)N/C(N)=N/c1nc(-c2cccc([N+](=O)[O-])c2)cs1 | 1.92 µM | 7.47 µM |

tested on: T-47D breast; assay: inhibition of tumour cell growth, NCI panel, 48 h

| SMILES | GI50 | TGI |
| --- | --- | --- |
| CSc1ccc(C2=NN(C(=O)c3ccc(F)cc3)C(c3ccc(F)cc3)C2)cc1 (centres undefined) | 12.2 µM | 31.2 µM |
| CC[C@H](NC(=O)[C@H](C)NC)C(=O)N1C[C@@H](O)C[C@H]1Cc1c(-c2[nH]c3cc(F)ccc3c2C[C@@H]2C[C@H](O)CN2C(=O)[C@H](CC)NC(=O)[C@H](C)NC)[nH]c2cc(F)ccc12 | > 100 µM | > 100 µM |
| Cc1ccccc1NC(=O)N/C(N)=N/c1nc(-c2cccc([N+](=O)[O-])c2)cs1 | 3.2 µM | > 100 µM |

tested on: SNB-19 CNS; assay: inhibition of tumour cell growth, NCI panel, 48 h

| SMILES | TGI | GI50 |
| --- | --- | --- |
| CCOC(=O)C(Cl)(NC(=O)NC(Cl)(C(=O)OCC)C(F)(F)F)C(F)(F)F (centres undefined) | > 100 µM | – |
| CC(=O)N1C(=O)CC2(N=C(C)CC2=O)c2ccccc21 (centres undefined) | > 10 µM | – |
| CSc1ccc(C2=NN(C(=O)c3ccc(F)cc3)C(c3ccc(F)cc3)C2)cc1 (centres undefined) | 27.5 µM | 14.3 µM |
| CC[C@H](NC(=O)[C@H](C)NC)C(=O)N1C[C@@H](O)C[C@H]1Cc1c(-c2[nH]c3cc(F)ccc3c2C[C@@H]2C[C@H](O)CN2C(=O)[C@H](CC)NC(=O)[C@H](C)NC)[nH]c2cc(F)ccc12 | > 100 µM | > 100 µM |
| Cc1ccccc1NC(=O)N/C(N)=N/c1nc(-c2cccc([N+](=O)[O-])c2)cs1 | 15.8 µM | 3.29 µM |

tested on: CCRF-CEM leukemia; assay: inhibition of tumour cell growth, NCI panel, 48 h

| SMILES | TGI | GI50 |
| --- | --- | --- |
| CCOC(=O)C(Cl)(NC(=O)NC(Cl)(C(=O)OCC)C(F)(F)F)C(F)(F)F (centres undefined) | > 100 µM | – |
| CSc1ccc(C2=NN(C(=O)c3ccc(F)cc3)C(c3ccc(F)cc3)C2)cc1 (centres undefined) | 6.52 µM | 2.24 µM |
| CC[C@H](NC(=O)[C@H](C)NC)C(=O)N1C[C@@H](O)C[C@H]1Cc1c(-c2[nH]c3cc(F)ccc3c2C[C@@H]2C[C@H](O)CN2C(=O)[C@H](CC)NC(=O)[C@H](C)NC)[nH]c2cc(F)ccc12 | > 100 µM | 1.51 µM |
| Cc1ccccc1NC(=O)N/C(N)=N/c1nc(-c2cccc([N+](=O)[O-])c2)cs1 | > 100 µM | 3 µM |

tested on: SK-MEL-2 melanoma; assay: inhibition of tumour cell growth, NCI panel, 48 h

| SMILES | TGI | GI50 |
| --- | --- | --- |
| CCOC(=O)C(Cl)(NC(=O)NC(Cl)(C(=O)OCC)C(F)(F)F)C(F)(F)F (centres undefined) | > 100 µM | – |
| CSc1ccc(C2=NN(C(=O)c3ccc(F)cc3)C(c3ccc(F)cc3)C2)cc1 (centres undefined) | 34.6 µM | 18.8 µM |
| CC[C@H](NC(=O)[C@H](C)NC)C(=O)N1C[C@@H](O)C[C@H]1Cc1c(-c2[nH]c3cc(F)ccc3c2C[C@@H]2C[C@H](O)CN2C(=O)[C@H](CC)NC(=O)[C@H](C)NC)[nH]c2cc(F)ccc12 | > 100 µM | 6.01 µM |
| Cc1ccccc1NC(=O)N/C(N)=N/c1nc(-c2cccc([N+](=O)[O-])c2)cs1 | 17.3 µM | 3.21 µM |

tested on: NCI-H23 lung; assay: inhibition of tumour cell growth, NCI panel, 48 h

| SMILES | TGI | GI50 |
| --- | --- | --- |
| CCOC(=O)C(Cl)(NC(=O)NC(Cl)(C(=O)OCC)C(F)(F)F)C(F)(F)F (centres undefined) | > 100 µM | – |
| CC(=O)N1C(=O)CC2(N=C(C)CC2=O)c2ccccc21 (centres undefined) | > 10 µM | – |
| CSc1ccc(C2=NN(C(=O)c3ccc(F)cc3)C(c3ccc(F)cc3)C2)cc1 (centres undefined) | 36.2 µM | 18.2 µM |
| CC[C@H](NC(=O)[C@H](C)NC)C(=O)N1C[C@@H](O)C[C@H]1Cc1c(-c2[nH]c3cc(F)ccc3c2C[C@@H]2C[C@H](O)CN2C(=O)[C@H](CC)NC(=O)[C@H](C)NC)[nH]c2cc(F)ccc12 | > 100 µM | > 65.3 µM |
| Cc1ccccc1NC(=O)N/C(N)=N/c1nc(-c2cccc([N+](=O)[O-])c2)cs1 | 6.49 µM | 1.94 µM |

tested on: SN12C renal; assay: inhibition of tumour cell growth, NCI panel, 48 h

| SMILES | TGI | GI50 |
| --- | --- | --- |
| CCOC(=O)C(Cl)(NC(=O)NC(Cl)(C(=O)OCC)C(F)(F)F)C(F)(F)F (centres undefined) | > 100 µM | – |
| CC(=O)N1C(=O)CC2(N=C(C)CC2=O)c2ccccc21 (centres undefined) | > 10 µM | – |
| CSc1ccc(C2=NN(C(=O)c3ccc(F)cc3)C(c3ccc(F)cc3)C2)cc1 (centres undefined) | 19.2 µM | 7.21 µM |
| CC[C@H](NC(=O)[C@H](C)NC)C(=O)N1C[C@@H](O)C[C@H]1Cc1c(-c2[nH]c3cc(F)ccc3c2C[C@@H]2C[C@H](O)CN2C(=O)[C@H](CC)NC(=O)[C@H](C)NC)[nH]c2cc(F)ccc12 | > 100 µM | > 100 µM |
| Cc1ccccc1NC(=O)N/C(N)=N/c1nc(-c2cccc([N+](=O)[O-])c2)cs1 | 30.5 µM | 3.37 µM |

tested on: HL-60(TB) leukemia; assay: inhibition of tumour cell growth, NCI panel, 48 h

| SMILES | TGI | GI50 |
| --- | --- | --- |
| CCOC(=O)C(Cl)(NC(=O)NC(Cl)(C(=O)OCC)C(F)(F)F)C(F)(F)F (centres undefined) | > 100 µM | – |
| CSc1ccc(C2=NN(C(=O)c3ccc(F)cc3)C(c3ccc(F)cc3)C2)cc1 (centres undefined) | 35.3 µM | 12 µM |
| CC[C@H](NC(=O)[C@H](C)NC)C(=O)N1C[C@@H](O)C[C@H]1Cc1c(-c2[nH]c3cc(F)ccc3c2C[C@@H]2C[C@H](O)CN2C(=O)[C@H](CC)NC(=O)[C@H](C)NC)[nH]c2cc(F)ccc12 | 42.9 µM | 7.15 µM |
| Cc1ccccc1NC(=O)N/C(N)=N/c1nc(-c2cccc([N+](=O)[O-])c2)cs1 | > 100 µM | 3.56 µM |

tested on: MDA-N; assay: inhibition of tumour cell growth, NCI panel, 48 h

| SMILES | TGI |
| --- | --- |
| CCOC(=O)C(Cl)(NC(=O)NC(Cl)(C(=O)OCC)C(F)(F)F)C(F)(F)F (centres undefined) | > 100 µM |
| CC(=O)N1C(=O)CC2(N=C(C)CC2=O)c2ccccc21 (centres undefined) | > 10 µM |

tested on: NCI-H460 lung; assay: inhibition of tumour cell growth, NCI panel, 48 h

| SMILES | GI50 | TGI |
| --- | --- | --- |
| CSc1ccc(C2=NN(C(=O)c3ccc(F)cc3)C(c3ccc(F)cc3)C2)cc1 (centres undefined) | 13 µM | 28.7 µM |
| CC[C@H](NC(=O)[C@H](C)NC)C(=O)N1C[C@@H](O)C[C@H]1Cc1c(-c2[nH]c3cc(F)ccc3c2C[C@@H]2C[C@H](O)CN2C(=O)[C@H](CC)NC(=O)[C@H](C)NC)[nH]c2cc(F)ccc12 | > 100 µM | > 100 µM |
| Cc1ccccc1NC(=O)N/C(N)=N/c1nc(-c2cccc([N+](=O)[O-])c2)cs1 | 3.18 µM | 23.1 µM |

tested on: UACC-62 melanoma; assay: inhibition of tumour cell growth, NCI panel, 48 h

| SMILES | GI50 | TGI |
| --- | --- | --- |
| CSc1ccc(C2=NN(C(=O)c3ccc(F)cc3)C(c3ccc(F)cc3)C2)cc1 (centres undefined) | 11.7 µM | 24.5 µM |
| CC[C@H](NC(=O)[C@H](C)NC)C(=O)N1C[C@@H](O)C[C@H]1Cc1c(-c2[nH]c3cc(F)ccc3c2C[C@@H]2C[C@H](O)CN2C(=O)[C@H](CC)NC(=O)[C@H](C)NC)[nH]c2cc(F)ccc12 | > 100 µM | > 100 µM |
| Cc1ccccc1NC(=O)N/C(N)=N/c1nc(-c2cccc([N+](=O)[O-])c2)cs1 | 2.14 µM | 12.8 µM |

tested on: COLO 205 colon; assay: inhibition of tumour cell growth, NCI panel, 48 h

| SMILES | TGI | GI50 |
| --- | --- | --- |
| CCOC(=O)C(Cl)(NC(=O)NC(Cl)(C(=O)OCC)C(F)(F)F)C(F)(F)F (centres undefined) | > 100 µM | – |
| CC(=O)N1C(=O)CC2(N=C(C)CC2=O)c2ccccc21 (centres undefined) | > 10 µM | – |
| CSc1ccc(C2=NN(C(=O)c3ccc(F)cc3)C(c3ccc(F)cc3)C2)cc1 (centres undefined) | 25.6 µM | 12.3 µM |
| CC[C@H](NC(=O)[C@H](C)NC)C(=O)N1C[C@@H](O)C[C@H]1Cc1c(-c2[nH]c3cc(F)ccc3c2C[C@@H]2C[C@H](O)CN2C(=O)[C@H](CC)NC(=O)[C@H](C)NC)[nH]c2cc(F)ccc12 | > 100 µM | > 55.8 µM |
| Cc1ccccc1NC(=O)N/C(N)=N/c1nc(-c2cccc([N+](=O)[O-])c2)cs1 | > 100 µM | 3.89 µM |

tested on: HCT-15 colon; assay: inhibition of tumour cell growth, NCI panel, 48 h

| SMILES | TGI | GI50 |
| --- | --- | --- |
| CCOC(=O)C(Cl)(NC(=O)NC(Cl)(C(=O)OCC)C(F)(F)F)C(F)(F)F (centres undefined) | > 100 µM | – |
| CC(=O)N1C(=O)CC2(N=C(C)CC2=O)c2ccccc21 (centres undefined) | > 10 µM | – |
| CSc1ccc(C2=NN(C(=O)c3ccc(F)cc3)C(c3ccc(F)cc3)C2)cc1 (centres undefined) | 20.5 µM | 5.39 µM |
| CC[C@H](NC(=O)[C@H](C)NC)C(=O)N1C[C@@H](O)C[C@H]1Cc1c(-c2[nH]c3cc(F)ccc3c2C[C@@H]2C[C@H](O)CN2C(=O)[C@H](CC)NC(=O)[C@H](C)NC)[nH]c2cc(F)ccc12 | > 100 µM | > 100 µM |
| Cc1ccccc1NC(=O)N/C(N)=N/c1nc(-c2cccc([N+](=O)[O-])c2)cs1 | 34.6 µM | 1.56 µM |

tested on: RXF 393 renal; assay: inhibition of tumour cell growth, NCI panel, 48 h

| SMILES | TGI | GI50 |
| --- | --- | --- |
| CCOC(=O)C(Cl)(NC(=O)NC(Cl)(C(=O)OCC)C(F)(F)F)C(F)(F)F (centres undefined) | > 100 µM | – |
| CC(=O)N1C(=O)CC2(N=C(C)CC2=O)c2ccccc21 (centres undefined) | > 10 µM | – |
| CSc1ccc(C2=NN(C(=O)c3ccc(F)cc3)C(c3ccc(F)cc3)C2)cc1 (centres undefined) | 20 µM | 4.8 µM |
| CC[C@H](NC(=O)[C@H](C)NC)C(=O)N1C[C@@H](O)C[C@H]1Cc1c(-c2[nH]c3cc(F)ccc3c2C[C@@H]2C[C@H](O)CN2C(=O)[C@H](CC)NC(=O)[C@H](C)NC)[nH]c2cc(F)ccc12 | > 20.1 µM | 2.27 µM |
| Cc1ccccc1NC(=O)N/C(N)=N/c1nc(-c2cccc([N+](=O)[O-])c2)cs1 | 4.33 µM | 1.78 µM |
